Earlier results on one molecule are cited in patent US20060167069A1, “Pharmaceutical composition of metaxalone with enhanced oral bioavailability” (Sun Pharmaceutical Industries Ltd., priority 2002, published 2006).

Molecules are shown by their SMILES.

For the data set the following is noted: prior art statement.

`Cc1cc(C)cc(OCC2CNC(=O)O2)c1` (stereo not shown) [Metaxalone, 5-(3,5-dimethylphenoxymethyl)-2-oxazolidinone]: the aqueous solubility entry was “low aqueous solubility”.
